Source: patent publication US20250313820A1, “PEPTIDES WITH MULTIVALENT EFFECTS” (In2Cure AB, priority 2021, published 2025)
Like-named read-outs stand apart in the source and are kept apart here.

Assays:
[1] = biological target: T1, human neutrophil elastase (HNE) (Homo sapiens, UniProt P08246); type: in vitro ADME
T1 construct: purchased Calbiochem, Merk KGaA, Darmstadt, Germany
T1 sequence (P08246 30-267): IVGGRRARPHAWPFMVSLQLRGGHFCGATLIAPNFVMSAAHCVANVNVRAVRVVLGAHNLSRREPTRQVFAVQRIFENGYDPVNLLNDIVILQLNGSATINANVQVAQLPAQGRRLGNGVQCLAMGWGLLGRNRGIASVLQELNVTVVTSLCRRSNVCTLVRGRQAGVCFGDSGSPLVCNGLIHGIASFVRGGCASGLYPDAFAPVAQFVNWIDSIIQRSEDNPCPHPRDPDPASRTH
Protocol: (§7) Peptides were resuspended in endotoxin free water at concentration of 1 mM. […] All digestions were performed in three independent experiments.

[2] = tested on: proteases (HNE, PE, V8, trypsin); experiment: Proteolysis in vitro, fragments by LC-MS/MS
Protocol: as §7

erythrocytes (RBCs) = type: cell-based, human
Protocol: (§1) Fresh venous blood from healthy donors was collected in lepirudine tubes (50 μg mL-1). Then 50 μL of blood were transferred to round-bottom 96-wells plate containing 150 μL of peptides previously diluted in RPMI-1640—GlutaMAX-I without phenol red (Gibco). 1:4 diluted blood was used as control. 50 μL of blood mixed with 150 μl 5% Tween-20 were used as positive control. After 1 h incubation at 37° C. and 5% CO2, the plate was centrifuged at 800 g, 150 μL of each sample were transferred to a flat-bottom 96-wells plate and the absorbance at 450 nm was measured. The percentage of hemolysis was calculated following the formula reported below: […]
To evaluate the hemolytic effect of the peptides on erythrocytes the blood was collected as reported above and centrifuged at 250 g for 10 min. Then plasma was discarded, and red blood cells were washed with 150 mM NaCl in 10 mM Tris pH 7.4 for three times. Next, the pellet was dilute 100 times with saline Tris buffer. 100 μL of this solution were added to round-bottom 96-wells plate containing 100 μL of peptides previously diluted in saline Tris buffer. After 1 h incubation at 37° C. and 5% CO2, the plate was centrifuged and the absorbance at 450 nm was measured, then the percentage of erythrocyte lysis was determined using formula reported above.
(§2) Data shown are mean values±SEM obtained from at least four independent experiments all made in triplicate. For each experiment blood from a different donor was used.

trypsin = biological target: T2, trypsin (Sus scrofa, UniProt P00761); type: in vitro ADME
T2 construct: purchased Promega, Madison, WI, USA
T2 sequence (P00761 9-231): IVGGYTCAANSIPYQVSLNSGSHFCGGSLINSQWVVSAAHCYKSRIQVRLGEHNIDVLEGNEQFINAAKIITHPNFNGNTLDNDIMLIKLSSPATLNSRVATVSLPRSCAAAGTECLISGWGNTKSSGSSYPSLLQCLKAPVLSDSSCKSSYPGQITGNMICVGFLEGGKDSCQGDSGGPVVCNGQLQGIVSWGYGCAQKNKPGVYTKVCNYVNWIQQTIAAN
Protocol: as §7

[3] = biological target: T3, P. aeruginosa elastase (PE) (Pseudomonas aeruginosa, UniProt P14756); type: in vitro ADME; settings: SDS-PAGE, digestion 0-18 h
T3 construct: purchased Calbiochem, Merk KGaA, Darmstadt, Germany
T3 sequence (P14756 198-498): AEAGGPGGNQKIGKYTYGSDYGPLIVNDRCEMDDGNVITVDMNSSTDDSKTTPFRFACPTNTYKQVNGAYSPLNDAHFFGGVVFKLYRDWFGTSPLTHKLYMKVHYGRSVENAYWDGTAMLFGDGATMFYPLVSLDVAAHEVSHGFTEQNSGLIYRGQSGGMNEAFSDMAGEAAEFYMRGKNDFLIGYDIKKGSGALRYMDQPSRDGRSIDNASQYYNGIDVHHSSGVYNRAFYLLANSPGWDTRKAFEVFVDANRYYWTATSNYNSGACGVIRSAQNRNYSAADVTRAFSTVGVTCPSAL
Protocol: All digestions were performed in three independent experiments.
Two μg of the peptide from each condition were loaded on 10-20% Novex Tricine pre-cast gel from Invitrogen (USA). The run was performed at 100 V for 100 min. The gel was stained by using Coomassie Brilliant blue (Invitrogen, USA). The image has been acquired with a Gel Doc Imager (Bio-Rad Laboratories, USA). Samples from three independent digestions were analysed.

whole blood = type: cell-based, human
Protocol: as §1, §2

[4] = tested on: release of TNF-α in LPS stimulated blood; experiment: Whole blood assay with cytokine ELISA: TNF-α; type: cell-based; settings: 25% human blood, 100 ng mL^−1 E. coli LPS, 24 h; read-out: Anti-inflammatory activity: Peptide concentration that reduces by 50% the release of TNF-α in LPS stimulated blood
Protocol: (§3) Fresh venous blood was collected in the presence of lepirudin (50 μg mL^−1) from healthy donors. […] After 24 h incubation at 37° C. in 5% CO2, the plate was centrifuged for 5 min at 1000 g and then the supernatants were collected and stored at −80° C. before analysis. The experiment was performed at least 4 times by using blood from different donors each time. To evaluate the healing properties of the peptides, the blood was stimulated with 100 ng mL^−1 LPS and after 30 min incubation at 37° C. was treated with increasing doses of four peptides. […] Then the blood was stimulated with 100 ng mL^−1 of LPS.
(§4) Plasma obtained from blood experiment was used to evaluate cytokine release. Human inflammation DuoSet® ELISA Kit (R&D Systems) specific for TNF-α and IL-1β was used according to the manufacturer's instructions. Absorbance was measured at a wavelength of 450 nm. Data shown are mean values±SEM obtained from at least four independent experiments all performed in duplicate.
(§5) For each experiment blood from a different donor was used.
(§6) Plasma obtained from blood experiments was used to evaluate cytokine release. […] Absorbance was measured at a wavelength of 450 nm. […]
as §6

[5] = tested on: cytokines released from human blood stimulated with E. coli LPS; experiment: Whole blood assay, cytokines overall (TNF-α and IL-1β); type: cell-based; settings: 25% blood, 100 ng mL^−1 LPS, peptide added before or together with LPS, 24 h
Protocol: as §3, §4, §5, §6, §6

Row | Compound | stability in the presence of HNE enhanced up to (time) [1] | protection to proteolysis / fragments released (LC-MS/MS) [2] | hemolytic activity, RBCs or whole blood (heatmaps FIG. 4, FIG. 20a), in words (erythrocytes (RBCs)) | Hemolytic activity, lysed RBCs (erythrocytes (RBCs); 1 h) [%] | intact peptide still detected after trypsin digestion (time) (trypsin) [h] | stability in the presence of PE enhanced up to (time) [3] | hemolytic activity in whole blood, in words (whole blood) | Hemolytic activity, lysed RBCs in whole blood (whole blood; 1 h) [%] | Hemolytic activity, lysed RBCs (erythrocytes (RBCs)) [%] | IC50 [4] [µM] | anti-inflammatory activity in LPS-stimulated blood (TNF-α and IL-1β release), in words [5] | Hemolytic activity, lysed RBCs in whole blood (whole blood) [%]
1 | CC[C@H](C)[C@H](NC(=O)[C@H](Cc1c[nH]c2ccccc12)NC(=O)[C@H](CCCCN)NC(=O)[C@H](CCCCN)NC(=O)[C@H](CC(C)C)NC(=O)[C@H](CCCNC(=N)N)NC(=O)[C@H](Cc1ccccc1)NC(=O)[C@@H](NC(=O)[C@@H](N)Cc1c[nH]cn1)C(C)C)C(=O)N[C@@]1(C)CCCC=CCCC[C@@](C)(C(=O)N[C@@H](CCC(N)=O)C(=O)N[C@@H](Cc2ccccc2)C(=O)NCC(=O)N[C@@H](CCC(=O)O)C(=O)O)NC(=O)[C@H]([C@@H](C)CC)NC(=O)[C@H](C(C)C)NC(=O)[C@H](CCCCN)NC1=O [sHVF18, HVFRLKKWIXKVIXQFGE] | up to 18 h | complete protection to proteolysis | lower hemolytic activity if compared with sGKY25 | 35.4 ± 5.9 | ≥ 18 | up to 18 h | significantly lower hemolytic activity | <1 | – | – | – | –
2 | cyclo[GKYGE]YTHVFRLKKWIXKVIXQFGE [2sGKY25] | – | – | – | – | – | – | slightly lower than for sGKY25, but definitely higher than for sHVF18 | – | 49.1 ± 13.6 | 8 ± 2.3 | better suppression of LPS-induced TNF-α and IL-1β release than GKY25 | <1
